pIC50: −log10 of the molar value. Like-named read-outs stand apart in the source and are kept apart here.
Columns and labels:
[1] = test system: p-SLP-76 (Ser376) in Jurkat cells; assay: pSLP76 Cellular Assay (AlphaLISA SureFire Ultra p-SLP-76 (Ser376), anti-CD3 activated Jurkat cells); type: cell-based; settings: Homo sapiens, read-out: Cellular Potency
Experimental: pSLP76 cellular assay was performed using Jurkat cells and the AlphaLISA SureFire Ultra p-SLP-76 (Ser376) Assay Kit (PerkinElmer). Dose-response assays were performed in Greiner® Low Volume 384-well assay plates containing 200 nL of 22 serial 2-fold compound dilutions using Bravo and Echo. Jurkat cells were grown in RPMI-1640 supplemented with 10% FBS and PSG. The day prior to the assay, the cells were collected, and serum starved overnight in Opti-MEM. The day of the assay, the cells were collected and resuspended in HBSS. 100,000 cells/well were added to the compound plates and after a short spin, the plates were incubated at 37° C. for 1 h. The cells were activated by adding 10 μL of 0.025 mg/ml anti-CD3. Plates were then incubated at 37° C. for 45 min. Stimulation was terminated by adding […], followed by a brief centrifugation and 60 min of shaking at 300 rpm. Cell lysates (10 μL) were transferred to 384-well White Opti-plates and the samples were processed according to the manufacturer's directions. The fluorescence signal from pSLP76 was measured at 570 nm using Envision plate reader. IC50 values were determined by fitting the data to a standard 4-parameter logistic equation. The results are summarized in the Cellular Potency columns in Tables 4 and 5 below (Cellular Potency).

HPK1 = HPK1 (Homo sapiens, UniProt Q92918); assay: HPK1 Biochemical Assay (ADP-Glo luminescence; low ATP 10 μM or high ATP 200 μM)
[2] = pSLP76 (Ser376) AlphaLISA, anti-CD3 activated Jurkat cells
[3] = HPK1 ADP-Glo assay, high ATP (200 μM ATP, 5 nM HPK1), read-out: Biochemical Potency (high ATP)
[4] = Jurkat cells, anti-CD3 stimulation, pSLP76
[5] = 2 nM HPK1, 10 μM ATP, read-out: Biochemical Potency (low ATP)
[6] = HPK1 ADP-Glo assay, low ATP (10 μM ATP, 2 nM HPK1), read-out: Biochemical Potency (low ATP)

Sequence of HPK1 (Q92918 whole entry, species assumed): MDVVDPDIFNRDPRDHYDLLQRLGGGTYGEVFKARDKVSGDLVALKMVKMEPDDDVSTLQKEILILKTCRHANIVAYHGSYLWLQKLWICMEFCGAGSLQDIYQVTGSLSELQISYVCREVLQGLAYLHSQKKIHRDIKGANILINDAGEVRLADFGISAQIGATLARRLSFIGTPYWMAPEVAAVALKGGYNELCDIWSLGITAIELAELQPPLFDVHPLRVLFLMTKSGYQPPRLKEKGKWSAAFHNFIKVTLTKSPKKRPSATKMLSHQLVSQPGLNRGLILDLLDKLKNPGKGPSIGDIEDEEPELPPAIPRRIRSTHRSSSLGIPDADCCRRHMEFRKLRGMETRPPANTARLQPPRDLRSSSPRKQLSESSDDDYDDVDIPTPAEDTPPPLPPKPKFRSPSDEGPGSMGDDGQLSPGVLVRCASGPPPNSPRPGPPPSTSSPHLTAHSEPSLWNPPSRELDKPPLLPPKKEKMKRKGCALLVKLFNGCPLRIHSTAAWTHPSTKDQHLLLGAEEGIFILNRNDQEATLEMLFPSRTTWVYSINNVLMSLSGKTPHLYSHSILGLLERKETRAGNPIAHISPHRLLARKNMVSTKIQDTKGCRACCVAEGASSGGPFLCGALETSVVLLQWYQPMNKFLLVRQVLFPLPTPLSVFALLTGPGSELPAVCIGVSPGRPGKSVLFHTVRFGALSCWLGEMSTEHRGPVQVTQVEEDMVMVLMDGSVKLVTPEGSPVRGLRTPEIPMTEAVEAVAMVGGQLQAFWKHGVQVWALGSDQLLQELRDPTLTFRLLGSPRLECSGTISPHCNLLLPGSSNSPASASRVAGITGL

pIC50 [1, 2] | pIC50 (HPK1; [3]) | pIC50 [1, 4] | pIC50 (HPK1; [5]) | pIC50 (HPK1; [6]) | Compound
6.00 to 7.00 | > 7.00 | – | – | – | CC(=O)N(C)c1cccc(-c2nc3cc(Nc4cc(C)nc(N5C[C@@H]6C[C@H]5CN6C)n4)ncc3s2)c1 [Example 396]
6.00 to 7.00 | > 7.00 | – | – | – | Cc1cc(Nc2cc3nc(-c4cccc(C5(O)CCC5)c4)sc3cn2)nc(N2C[C@@H]3C[C@H]2CN3C)n1 [Example 402]
– | – | < 5.30 | > 7.00 | – | Cc1cccnc1-c1nc2cc(Nc3cccc(C4CCN(C)CC4)n3)ncc2s1 [Example 115, 6-(1-Methylpiperidin-4-yl)-N-[2-(3-methylpyridin-2-yl)-[1,3]thiazolo[5,4-c]pyridin-6-yl]pyridin-2-amine]
6.00 to 7.00 | > 7.00 | – | – | – | Cc1cc(Nc2cc3nc(-c4cccc(C(=O)N5CCC[C@H]5C)c4)sc3cn2)nc(N2C[C@@H]3C[C@H]2CN3CCO)n1 [Example 550]
– | – | 5.30 to 6.00 | > 7.00 | – | CN(C)Cc1nc(Nc2cc3nc(-c4c(F)cccc4F)sc3cn2)ccc1C1CCOC1 (stereo not shown) [Example 257, N-[2-(2,6-Difluorophenyl)-[1,3]thiazolo[5,4-c]pyridin-6-yl]-6-[(dimethylamino)methyl]-5-(oxolan-3-yl)pyridin-2-amine]
> 7.00 | > 7.00 | – | – | – | CCN1C[C@@H]2C[C@H]1CN2c1nc(C)cc(Nc2cc3nc(-c4cc(C(=O)N(C)C)cc(C5CC5)c4)sc3cn2)n1 [Example 536]
> 7.00 | > 7.00 | – | – | > 7.00 | CN1C[C@@H]2C[C@H]1CN2c1nc(Nc2cc3nc(-c4cccc(C(C)(C)O)c4)sc3cn2)cc(C2CCOCC2)n1 [Example 440]
– | – | < 5.30 | > 7.00 | – | CC(C)n1cc(-c2nc3cc(Nc4ccc(N5CCOCC5)c(CN5CCCC5)n4)ncc3s2)cn1 [Example 23, 5-(Morpholin-4-yl)-N-{2-[1-(propan-2-yl)-1H-pyrazol-4-yl]-[1,3]thiazolo[5,4-c]pyridin-6-yl}-6-[(pyrrolidin-1-yl)methyl]pyridin-2-amine]
6.00 to 7.00 | > 7.00 | – | – | – | Cc1cc(Nc2cc3nc(-c4cnn(CS(C)(=O)=O)c4)sc3cn2)nc(N2C[C@@H]3C[C@H]2CN3C)n1 [Example 378]
> 7.00 | > 7.00 | – | – | – | Cc1cc(-c2nc3cc(Nc4cc(C)nc(N5C[C@@H]6C[C@H]5CN6CCO)n4)ncc3s2)cc(N2CCCC2=O)c1 [Example 345]
– | – | < 5.30 | > 7.00 | – | Cc1ccc(Nc2cc3nc(-c4ncccc4C)sc3cn2)nc1CN1CC[C@@H](C#N)C1 [Example 54, 6 (3R)-1-[(3-Methyl-6-{[2-(3-methylpyridin-2-yl)-[1,3]thiazolo[5,4-c]pyridin-6-yl]amino}pyridin-2-yl)methyl]pyrrolidine-3-carbonitrile]
6.00 to 7.00 | > 7.00 | – | – | > 7.00 | Cc1cc(Nc2cc3nc(-c4ccnc(C(C)(C)O)c4)sc3cn2)nc(N2C[C@@H]3C[C@H]2CN3C)n1 [Example 406]
– | – | > 7.00 | > 7.00 | – | Cc1cc(-c2nc3cc(Nc4ccc(C)c(O[C@H]5CCNC5)n4)ncc3s2)ccn1 [Example 172, 5-Methyl-N-[2-(2-methylpyridin-4-yl)-[1,3]thiazolo[5,4-c]pyridin-6-yl]-6-[(3S)-pyrrolidin-3-yloxy]pyridin-2-amine]
6.00 to 7.00 | > 7.00 | – | – | – | Cc1cc(Nc2cc3nc(-c4ccnc(N5C[C@@H](C)O[C@@H](C)C5)c4)sc3cn2)nc(N2C[C@@H]3C[C@H]2CN3CCO)n1 [Example 445]
– | – | 6.00 to 7.00 | > 7.00 | – | CC(C)(O)c1cc(-c2nc3cc(Nc4ccnc(N5C[C@@H]6C[C@H]5CN6)n4)ncc3s2)ccn1 [Example 120, 2-{4-[6-({2-[(1S,4S)-2,5-Diazabicyclo[2.2.1]heptan-2-yl]pyrimidin-4-yl}amino)-[1,3]thiazolo[5,4-c]pyridin-2-yl]pyridin-2-yl}propan-2-ol]
> 7.00 | > 7.00 | – | – | – | Cc1cc(Nc2cc3nc(-c4cccc(C(=O)N(C)C)c4)sc3cn2)nc(N2C[C@@H]3C[C@H]2CN3Cc2ccccc2)n1 [Example 496]

From US12649751B2 (Arcus Biosciences, Inc., priority 2022, dated 2026)
